Data set [1] has as its target T1, TSPO (Rattus norvegicus, UniProt P16257). The conditions noted are these: cited from earlier work; for Ki: read-out: Ki for TSPO in C6 glioma, C6 glioma.
A short description of data set [2]: Radio-TLC analysis of plasma samples taken during PET scan. The conditions noted are these: samples at 2, 12, 30, 60 min, n=2, preliminary. Format: in vivo, male Wistar rats.
For data set [3], the target named is T1, TSPO. Description: Radiometric TSPO binding assay, [3H]PK11195 displacement in heart lysate. More on the design: species or system athymic nude rat. The conditions noted are these: for Ki: read-out: Heart Ki, versus [3H]PK11195, Ki ± S.E.M., triplicate.
Data set [4] concerns the target T1, TSPO. Kind of data set: Radiometric TSPO binding assay, [3H]PK11195 displacement in kidney lysate. More on the design: species or system athymic nude rat. The note with it: read-out: Kidney Ki, low-affinity binding (mixed affinity binding), versus [3H]PK11195, Ki ± S.E.M., low-affinity component.

Like-named read-outs stand apart in the source and are kept apart here.

In the case of `CCc1cc(CC)n2nc(-c3ccc(OCCF)cc3)c(CC(=O)N(CC)CC)c2n1` [2b], the Ki (as a rule, a dissociation constant, usually derived from enzyme kinetics or from competition with a known ligand) on TSPO [1] is 270 pM.
Regarding `CCc1cc(CC)n2nc(-c3ccc(OCC[18F])cc3)c(CC(=O)N(CC)CC)c2n1` [[^18F]-2b, 2-(5,7-diethyl-2-(4-(2-[^18F]fluoroethoxy)phenyl)pyrazolo[1,5-a]pyrimidin-3-yl)-N,N– diethylacetamide], the “enhancement in affinity compared to [18F]-2a” value at TSPO [1] (TSPO affinity) was 36 fold.
Turning to `CN(C)C(=O)Cc1nn(-c2cccc([18F])n2)c(=O)c2c1c1ccc(Cl)cc1n2C` [[^18F]-14, 7-chloro-N,N,5-trimethyl-4-oxo-3(6-[^18F]fluoropyridin-2-yl)-3,5-dihydro-4H-pyridazino[4,5-b]indole-1-acetamide], the “% parent at 60 min” value in data set [2] is more than 90%.
Take `COc1ccc(OC)c(CN(C(=O)CF)c2ccccc2Oc2ccccc2)c1` [compound 1]: the Ki at TSPO [1] is 6170 pM.
With `CN(C)C(=O)Cc1nn(-c2cccc([N+](=O)[O-])c2)c(=O)c2c1c1ccc(Cl)cc1n2C` [compound 11], the Ki on TSPO [3] is 1.18 ± 0.09 pM.
`CN(C)C(=O)Cc1nn(-c2ccc(F)cc2)c(=O)c2c1c1ccc(Cl)cc1n2C` [compound 12]: the Ki at TSPO [4] was 969 pM.
On to `CN(C)C(=O)Cc1nn(-c2ccccn2)c(=O)c2c1c1ccc(Cl)cc1n2C` [compound 13], for which the Ki at TSPO [3] turned out to be 4940 ± 662 pM. Also, the “Heart Ki” value on TSPO [3] (versus [3H]PK11195, Ki ± S.E.M., triplicate) is recorded as “did not appreciably bind TSPO”.

Source of the values: publication PMC4163096 (Bioorganic & medicinal chemistry letters, 2014).
